Legend:
NDM-1 BAA2469 E. coli = type: in vivo; settings: mice, intravenous; rifampicin 10 mg/kg, colistin 20 mg/kg, HT0120663 5 mg/kg; singly
[1] = system: NDM-1 BAA2470 K. pneumoniae; type: in vivo; settings: mice, intravenous; rifampicin 10 mg/kg, colistin 20 mg/kg, HT0120663 5 mg/kg; singly
enterobacteria = settings: on some enterobacteria; cited from earlier work

Compound | in vivo activity of drug alone (NDM-1 BAA2469 E. coli) | in vivo activity of drug alone [1] | antibacterial effect (enterobacteria)
Colistin | no in vivo activity | no in vivo activity | –
Cc1cn([C@H]2C[C@H](N=[N+]=[N-])[C@@H](CO)O2)c(=O)[nH]c1=O [HT0120663, Zidovudine] | no in vivo activity | no in vivo activity | bactericidal effect

From US10098904B2, “Zidovudine combination therapies for treating microbial infections” (HELPERBY THERAPEUTICS LIMITED, priority 2014, dated 2018)
